Reference: publication PMC12797170, “Potent Competitive Inhibitors of Ecto-5′-nucleotidase (CD73) based on 6‑(Het)aryl-7-deazapurine Ribonucleoside 5′‑O‑Bisphosphonates” (ACS Pharmacology & Translational Science, 2025)
≈ marks a conversion by molar mass, not a printed value. Where two headings read alike, the source gives them in different places.

Key:
[1] = Plasma protein binding, equilibrium dialysis, human plasma; format: in vitro ADME; conditions: undiluted plasma
[2] = Microsomal stability assay, mouse liver microsomes; format: in vitro ADME; conditions: for Mics (m) comp remaining 60 min: 10 μM; for microsomal CLint at 10 µM: pooled liver microsomes, pH 7.4, read-out: Mics (m) CLint
[3] = in vitro; conditions: human, plasma
[4] = in vitro; conditions: mouse, plasma
[5] = Kinetic solubility in PBS; format: physicochemical; conditions: phosphate-buffered saline, pH 7.4, aqueous buffer, kinetic from dmso stock
Procedure, shortened: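 Echo-MS quantitation with calibration from 0.05 to 4 μM, after 1:99 dilution of filtrate into 50% acetonitrile. Filtrate came from a 100 μM PBS (pH 7.4) solution equilibrated 2 h at room temperature with shaking, in duplicate.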

[6] = target: T1, recombinant human CD73 (hCD73) (Homo sapiens, UniProt P21589); experiment: CD73 activity assay on recombinant human CD73; format: biochemical; conditions: ΔGexp = RT ln Ki
T1 sequence (P21589 27-574): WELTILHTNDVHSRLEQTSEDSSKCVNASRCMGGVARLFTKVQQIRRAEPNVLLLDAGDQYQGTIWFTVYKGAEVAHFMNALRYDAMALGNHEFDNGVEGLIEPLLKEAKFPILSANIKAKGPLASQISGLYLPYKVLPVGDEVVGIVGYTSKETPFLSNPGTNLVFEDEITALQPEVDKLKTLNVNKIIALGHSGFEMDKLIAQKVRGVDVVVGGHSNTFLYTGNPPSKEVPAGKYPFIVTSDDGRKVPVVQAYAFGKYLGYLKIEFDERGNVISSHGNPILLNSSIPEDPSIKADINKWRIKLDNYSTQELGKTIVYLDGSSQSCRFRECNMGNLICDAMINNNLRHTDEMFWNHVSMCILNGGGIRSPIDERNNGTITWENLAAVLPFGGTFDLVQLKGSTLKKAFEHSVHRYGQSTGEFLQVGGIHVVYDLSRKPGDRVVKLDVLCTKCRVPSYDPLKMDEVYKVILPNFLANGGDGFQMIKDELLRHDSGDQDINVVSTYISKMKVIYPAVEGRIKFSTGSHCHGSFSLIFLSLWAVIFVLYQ

[7] = test system: HeLa S3; experiment: In vitro cytotoxic activity; format: cell-based; conditions: Homo sapiens
Method: (§1) All the compounds were also tested for their in vitro cytotoxic activity on a small panel of four cancer cell lines (CCRF-CEM, HepG2, HeLa S3, HL-60) and nonmalignant human dermal fibroblasts (NHDF).

[8] = test system: nonmalignant human dermal fibroblasts (NHDF); experiment: In vitro cytotoxic activity; format: cell-based
Method: as §1

[9] = test system: HepG2; experiment: In vitro cytotoxic activity; format: cell-based; conditions: Homo sapiens
Method: as §1

[10] = test system: CCRF-CEM; experiment: In vitro cytotoxic activity; format: cell-based; conditions: Homo sapiens
Method: as §1

[11] = test system: HL-60; experiment: In vitro cytotoxic activity; format: cell-based; conditions: Homo sapiens
Method: as §1

[12] = test system: MDA-MB-231 breast cancer cell line; experiment: CellTox Green cytotoxicity assay; format: cell-based, human; conditions: 24 h
Method: MDA-MB-231 cells were harvested and counted using an automated cell counter. A total of 2,500 cells per well were seeded in 20 μL of phenol red-free complete RPMI medium into black 384-well plates. Five μL of CD73 inhibitors (final concentration: […]) or 5 μL PBS (negative control) were added to each well, except for wells designed as maximal signal (dead cell) controls. Plates were incubated for 24 h at 37 °C in a humidified CO2 incubator. To generate the maximum signal control, 5 μL of lysis buffer (CellTox Green Cytotoxicity Assay, Promega) was added to the dead cell controls, followed by a 30 min incubation at room temperature. Subsequently, 25 μL/well of CellTox Green Dye (diluted 1:500 in the assay buffer; Promega) was added. Plates were incubated in the dark on an orbital shaker at 500–700 rpm for 15 min. Fluorescence was measured using an Infinite M1000 plate reader (Tecan) with excitation at 485–500 nm and emission at 520–530 nm. Data were analyzed in GraphPad Prism 10.
Figure S2: Effect of CD73 inhibition on the viability of CD73-expressing breast cancer cell line. MDA-MB-231 cells were incubated with 10 µM CD73 inhibitors for 24 hours. Viability was assessed using the CellTox™ Green Cytotoxicity Assay.
± s.d. of technical triplicates (s.d., standard deviation).
(1 picture or pasted object on this page, not shown here)

[13] = Microsomal stability assay, human liver microsomes; format: in vitro ADME; conditions: for Mics (hu) comp remaining 60 min: 10 μM; for microsomal CLint at 10 µM: pooled liver microsomes, pH 7.4, read-out: Mics (hu) CLint
[14] = human plasma protein binding, read-out: PPB (hu) (converted)
[15] = Tables 1 and 3, human plasma as printed in footnote, read-out: fup, fraction unbound in human plasma

O=P(O)(O)CP(=O)(O)OC[C@H]1O[C@@H](n2ccc3c(-c4ccc(F)c5ccccc45)nc(Cl)nc32)[C@H](O)[C@@H]1O [7B.28]
fraction unbound at 4 h, 100 µM [1, 14]: ≤ 0.01 | Mics (m) comp remaining 60 min [2]: 101% | microsomal CLint at 10 µM [2]: < 2 µL/min/mg | half-life at 10 µM [3]: > 120 min | half-life at 10 µM [4]: > 120 min | solubility at 2 h [5]: > 100 µM | dG_exp, experimental binding free energy [6]: –16.6 kcal/mol | IC50 [7]: > 10 µM | IC50 [8]: > 10 µM | IC50 [9]: > 10 µM | IC50 [10]: > 10 µM | IC50 [11]: > 10 µM | in vitro cytotoxicity against MDA-MB-231 [12]: nontoxic | Mics (hu) comp remaining 60 min [13]: 95% | microsomal CLint at 10 µM [13]: 2 µL/min/mg

O=P(O)(O)CP(=O)(O)OC[C@H]1O[C@@H](n2ccc3c(-c4ccc5ccccc5c4)ncnc32)[C@H](O)[C@@H]1O [4A.7]
fraction unbound at 4 h, 100 µM [1, 15]: 0.31 | fraction unbound at 4 h, 100 µM [1, 14]: 0.011 | half-life at 10 µM [3]: > 120 min | half-life at 10 µM [4]: > 120 min | solubility at 2 h [5]: > 100 µM | dG_exp, experimental binding free energy [6]: –13.4 kcal/mol | IC50 [7]: > 10 µM | IC50 [8]: > 10 µM | IC50 [9]: > 10 µM | IC50 [10]: > 10 µM | IC50 [11]: > 10 µM | in vitro cytotoxicity against MDA-MB-231 [12]: nontoxic

O=P(O)(O)CP(=O)(O)OC[C@H]1O[C@@H](n2ccc3c(-c4cccc5ccncc45)ncnc32)[C@H](O)[C@@H]1O [4A.18]
fraction unbound at 4 h, 100 µM [1, 14]: 0.195 | microsomal CLint at 10 µM [2]: < 1 µL/min/mg | half-life at 10 µM [3]: > 120 min | half-life at 10 µM [4]: > 120 min | solubility at 2 h [5]: 56 µM (≈ 30 µg/mL) | dG_exp, experimental binding free energy [6]: –14.1 kcal/mol | IC50 [7]: > 10 µM | IC50 [8]: > 10 µM | IC50 [9]: > 10 µM | IC50 [10]: > 10 µM | IC50 [11]: > 10 µM | in vitro cytotoxicity against MDA-MB-231 [12]: nontoxic | Mics (hu) comp remaining 60 min [13]: 105% | microsomal CLint at 10 µM [13]: < 1 µL/min/mg

O=P(O)(O)CP(=O)(O)OC[C@H]1O[C@@H](n2ccc3c(-c4ccc5c(c4)CCCC5)nc(Cl)nc32)[C@H](O)[C@@H]1O [7B.23]
fraction unbound at 4 h, 100 µM [1, 14]: ≤ 0.01 | Mics (m) comp remaining 60 min [2]: 123% | microsomal CLint at 10 µM [2]: < 1 µL/min/mg | half-life at 10 µM [3]: > 120 min | half-life at 10 µM [4]: > 120 min | solubility at 2 h [5]: 84 µM (≈ 48.2 µg/mL) | dG_exp, experimental binding free energy [6]: –16.3 kcal/mol | IC50 [7]: > 10 µM | IC50 [8]: > 10 µM | IC50 [9]: 9.3 µM | IC50 [10]: > 10 µM | IC50 [11]: 5.7 µM | in vitro cytotoxicity against MDA-MB-231 [12]: nontoxic | Mics (hu) comp remaining 60 min [13]: 124% | microsomal CLint at 10 µM [13]: < 1 µL/min/mg

Cc1nc(-c2ccc3ccccc3c2)c2ccn([C@@H]3O[C@H](COP(=O)(O)CP(=O)(O)O)[C@@H](O)[C@H]3O)c2n1 [18E.7]
fraction unbound at 4 h, 100 µM [1, 14]: 0.004 | Mics (m) comp remaining 60 min [2]: 97% | microsomal CLint at 10 µM [2]: 1 µL/min/mg | half-life at 10 µM [3]: > 120 min | half-life at 10 µM [4]: > 120 min | solubility at 2 h [5]: 78 µM (≈ 42.9 µg/mL) | dG_exp, experimental binding free energy [6]: –14.6 kcal/mol | IC50 [7]: > 10 µM | IC50 [8]: > 10 µM | IC50 [9]: > 10 µM | IC50 [10]: > 10 µM | IC50 [11]: > 10 µM | in vitro cytotoxicity against MDA-MB-231 [12]: nontoxic | Mics (hu) comp remaining 60 min [13]: 86% | microsomal CLint at 10 µM [13]: 5 µL/min/mg

Cc1nc(-c2cccc3ccccc23)c2ccn([C@@H]3O[C@H](COP(=O)(O)CP(=O)(O)O)[C@@H](O)[C@H]3O)c2n1 [18E.6]
fraction unbound at 4 h, 100 µM [1, 14]: 0.045 | Mics (m) comp remaining 60 min [2]: 95% | microsomal CLint at 10 µM [2]: 1 µL/min/mg | half-life at 10 µM [3]: > 120 min | half-life at 10 µM [4]: > 120 min | solubility at 2 h [5]: 89 µM (≈ 48.9 µg/mL) | dG_exp, experimental binding free energy [6]: –13.9 kcal/mol | IC50 [7]: > 10 µM | IC50 [8]: > 10 µM | IC50 [9]: > 10 µM | IC50 [10]: > 10 µM | IC50 [11]: > 10 µM | in vitro cytotoxicity against MDA-MB-231 [12]: nontoxic | Mics (hu) comp remaining 60 min [13]: 98% | microsomal CLint at 10 µM [13]: 1 µL/min/mg

O=P(O)(O)CP(=O)(O)OC[C@H]1O[C@@H](n2ccc3c(-c4cccc5c4CCCC5)nc(Cl)nc32)[C@H](O)[C@@H]1O [7B.12]
fraction unbound at 4 h, 100 µM [1, 14]: 0.005 | Mics (m) comp remaining 60 min [2]: 117% | microsomal CLint at 10 µM [2]: < 1 µL/min/mg | half-life at 10 µM [3]: > 120 min | half-life at 10 µM [4]: > 120 min | solubility at 2 h [5]: 85 µM (≈ 48.8 µg/mL) | dG_exp, experimental binding free energy [6]: –15.9 kcal/mol | IC50 [7]: > 10 µM | IC50 [8]: > 10 µM | IC50 [9]: > 10 µM | IC50 [10]: > 10 µM | IC50 [11]: > 10 µM | in vitro cytotoxicity against MDA-MB-231 [12]: nontoxic | Mics (hu) comp remaining 60 min [13]: 101% | microsomal CLint at 10 µM [13]: < 1 µL/min/mg

O=P(O)(O)CP(=O)(O)OC[C@H]1O[C@@H](n2ccc3c(-c4ccc5c(c4)CCCC5)nc(I)nc32)[C@H](O)[C@@H]1O [27H.23, [(5-{[2-Iodo-4-(5,6,7,8-tetrahydronaphthalen-2-yl)-7H-pyrrolo[2,3-d]pyrimidin-7-yl]-β-D-ribofuranosyl}oxy)phosphonomethyl]phosphonic Acid]
fraction unbound at 4 h, 100 µM [1, 15]: 0.036 | fraction unbound at 4 h, 100 µM [1, 14]: ≤ 0.01 | microsomal CLint at 10 µM [2]: 2 µL/min/mg | half-life at 10 µM [3]: > 120 min | half-life at 10 µM [4]: > 120 min | solubility at 2 h [5]: > 100 µM | dG_exp, experimental binding free energy [6]: –16.1 kcal/mol | IC50 [7]: > 10 µM | IC50 [8]: > 10 µM | IC50 [9]: > 10 µM | IC50 [10]: > 10 µM | IC50 [11]: > 10 µM | in vitro cytotoxicity against MDA-MB-231 [12]: nontoxic | Mics (hu) comp remaining 60 min [13]: 104% | microsomal CLint at 10 µM [13]: < 1 µL/min/mg
